Source: patent US8530623B2, “Proteasome-activating lightening peptides and compositions containing same” (ISP Investments Inc., priority 2009, dated 2013)
Where no end group is shown, it is not given here.

Tested on: melanin present in the epidermis of human skin samples
Assay: Depigmenting effect ex vivo on human skin biopsies (Fontana-Masson melanin staining)
Type: cell-based
Conditions: 2 applications per day
Experimental: 6 mm diameter biopsies are taken from human skin samples. These biopsies are maintained in ex vivo survival in the presence of a specific medium (DMEM 1 g/L, HAMF12, SVF and antibiotics) on inserts deposited in 6-well plates. The biopsies are then pretreated for 24 hours with the active principle at 3% concentration at a rate of 2 applications per day. Other skin samples will not be pretreated with the active principle and will be used as the control condition. Subsequently, the biopsies are subjected to UVB irradiation at a rate of 100 mJ/cm^2. The pretreated biopsies are again treated for 24 hours with the active principle at 3% concentration at a rate of 2 applications per day. After this second treatment, a quantitative evaluation of the quantity of melanin present in the epidermis of skin samples is carried out histologically, with an optical microscope, after staining according to the Fontana-Masson method.
To do this, the skin biopsies are enclosed in paraffin and histological sections with a thickness of 4 μm are made. These sections are then stained by the Fontana-Masson technique: The paraffin is removed from the slides; the slides being hydrated and then treated with a silver ammonium hydroxide solution. […]

Asp-Cys-Arg-NH2 [SEQ ID No. 2]
melanin level (pigmentation level) in the epidermis, absence of UVB irradiation (active principle at 3% concentration, 24 hours, no UVB, vs untreated skin, optical microscope): reduces the melanin level | melanin synthesis induced by UVB irradiation (pigmentation level after UVB) (pretreated 24 hours at 3%, UVB 100 mJ/cm^2, treated again 24 hours, vs untreated control): very distinctly reduced
